Measured values: ChEMBL document CHEMBL1201862, “PubChem BioAssay data set” (2004)
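Following 48 hours of exposure in 96-well plates, responses at five concentrations were used to interpolate endpoints linearly. GI50 = concentration required for 50% inhibition of growth.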 The source made the active and inactive calls. No stated cut-off is given here; in the data, active = GI50 up to about 1.1 µM and inactive = higher.

Key:
Test in all cases: inhibition of tumour cell growth, NCI panel, 48 h
786-0 = system: 786-0
A498 = system: A498
A549 = system: A549
ACHN = system: ACHN
BT-549 = system: BT-549
CAKI-1 = system: CAKI-1
CCRF-CEM = system: CCRF-CEM
COLO 205 = system: COLO 205
DU-145 = system: DU-145
EKVX = system: EKVX
HCC 2998 = system: HCC 2998
HCT-116 = system: HCT-116
HCT-15 = system: HCT-15
HOP-62 = system: HOP-62
HT-29 = system: HT-29
Hs-578T = system: Hs-578T
IGROV-1 = system: IGROV-1
K562 = system: K562
KM12 = system: KM12
M14 = system: M14
MCF7 = system: MCF7
MDA-MB-231 = system: MDA-MB-231
MDA-MB-435 = system: MDA-MB-435
MDA-N = system: MDA-N
MOLT-4 = system: MOLT-4
Malme-3M = system: Malme-3M
NCI-H226 = system: NCI-H226
NCI-H23 = system: NCI-H23
NCI-H522 = system: NCI-H522
NCI/ADR-RES = system: NCI/ADR-RES
OVCAR-3 = system: OVCAR-3
OVCAR-4 = system: OVCAR-4
OVCAR-5 = system: OVCAR-5
OVCAR-8 = system: OVCAR-8
PC-3 = system: PC-3
RPMI-8226 = system: RPMI-8226
RXF 393 = system: RXF 393
SF-268 = system: SF-268
SF-295 = system: SF-295
SK-MEL-28 = system: SK-MEL-28
SK-MEL-2 = system: SK-MEL-2
SK-MEL-5 = system: SK-MEL-5
SK-OV-3 = system: SK-OV-3
SN12C = system: SN12C
SNB-19 = system: SNB-19
SW-620 = system: SW-620
T47D = system: T47D
TK-10 = system: TK-10
U-251 = system: U-251
UACC-257 = system: UACC-257
UACC-62 = system: UACC-62
UO-31 = system: UO-31
HL-60 = system: HL-60
LOX IMVI = system: LOX IMVI
NCI-H460 = system: NCI-H460
SF-539 = system: SF-539
SNB-75 = system: SNB-75

In the case of COC1OC2COC(C)(C)OC2C2OC(C)(C)OC12 (configuration not stated), the GI50 (786-0) is reported as 18.6 µM (inactive), the GI50 (A498) is reported as 55.2 µM (inactive) and the GI50 (A549) is reported as 85.1 µM (inactive). The GI50 (ACHN) was 41.8 µM (inactive), the GI50 (BT-549) was > 100 µM (inactive) and the GI50 (CAKI-1) was 14.6 µM (inactive). For the same molecule, the GI50 (CCRF-CEM) was 19 µM (inactive), the GI50 (COLO 205) was 46.5 µM (inactive) and the GI50 (DU-145) was > 100 µM (inactive). The GI50 (EKVX) was 25.7 µM (inactive), the GI50 (HCC 2998) was > 100 µM (inactive) and the GI50 (HCT-116) was > 100 µM (inactive). The GI50 (HCT-15) was greater than 100 µM, the GI50 (HOP-62) was 21.7 µM (inactive) and the GI50 (HT-29) was 60.5 µM (inactive). For the same molecule, the GI50 (Hs-578T) was 17 µM (inactive), the GI50 (IGROV-1) was 18.7 µM (inactive) and the GI50 (K562) was 33.7 µM (inactive). The GI50 (KM12) was > 100 µM (inactive), the GI50 (M14) was > 100 µM (inactive) and the GI50 (MCF7) was 23.6 µM (inactive). The GI50 (MDA-MB-231) was 16 µM (inactive), the GI50 (MDA-MB-435) was > 100 µM (inactive) and the GI50 (MDA-N) was 69.5 µM (inactive). For the same molecule, the GI50 (MOLT-4) was 25.3 µM (inactive), the GI50 (Malme-3M) was > 100 µM (inactive) and the GI50 (NCI-H226) was 23.8 µM (inactive). For the same molecule, the GI50 (NCI-H23) was 82.4 µM (inactive), the GI50 (NCI-H522) was > 100 µM (inactive) and the GI50 (NCI/ADR-RES) was 63.8 µM (inactive). For the same molecule, the GI50 (OVCAR-3) was > 100 µM (inactive), the GI50 (OVCAR-4) was 22.2 µM (inactive) and the GI50 (OVCAR-5) was > 100 µM (inactive). The GI50 (OVCAR-8) was 55.7 µM (inactive), the GI50 (PC-3) was 80.5 µM (inactive) and the GI50 (RPMI-8226) was 17 µM (inactive). The GI50 (RXF 393) was 23.7 µM (inactive), the GI50 (SF-268) was > 100 µM (inactive) and the GI50 (SF-295) was 22.6 µM (inactive). The GI50 (SK-MEL-28) was > 100 µM (inactive), the GI50 (SK-MEL-2) was > 100 µM (inactive) and the GI50 (SK-MEL-5) was > 100 µM (inactive). The GI50 (SK-OV-3) was 78.2 µM (inactive), the GI50 (SN12C) was 21 µM (inactive) and the GI50 (SNB-19) was 21.8 µM (inactive). The GI50 (SW-620) was > 100 µM (inactive), the GI50 (T47D) was > 100 µM (inactive) and the GI50 (TK-10) was 49.8 µM (inactive). For the same molecule, the GI50 (U-251) was 24.5 µM (inactive), the GI50 (UACC-257) was 63.2 µM (inactive) and the GI50 (UACC-62) was 45.1 µM (inactive). For the same molecule, the GI50 (UO-31) was > 100 µM (inactive).
In the case of O=[N+]([O-])C(Cl)C(Cl)C(Cl)=C(Cl)Cl (configuration not stated), the GI50 (786-0) is reported as 7.85 µM (inactive), the GI50 (A498) is reported as > 77.3 µM (inactive) and the GI50 (A549) is reported as > 91.8 µM (inactive). The GI50 (ACHN) was 16.4 µM (inactive), the GI50 (BT-549) was 22.6 µM (inactive) and the GI50 (CAKI-1) was 17.6 µM (inactive). For the same molecule, the GI50 (CCRF-CEM) was 23.7 µM (inactive), the GI50 (COLO 205) was 17.5 µM (inactive) and the GI50 (DU-145) was 88.7 µM (inactive). For the same molecule, the GI50 (EKVX) was > 100 µM (inactive), the GI50 (HCC 2998) was > 40.9 µM (inactive) and the GI50 (HCT-116) was 19.4 µM (inactive). For the same molecule, the GI50 (HCT-15) was 18.7 µM, the GI50 (HL-60) was 10.4 µM (inactive) and the GI50 (HOP-62) was 41.2 µM (inactive). The GI50 (HT-29) was 17.6 µM (inactive), the GI50 (Hs-578T) was 25.1 µM (inactive) and the GI50 (IGROV-1) was 13.3 µM (inactive). The GI50 (K562) was 29.8 µM (inactive), the GI50 (KM12) was > 66.7 µM (inactive) and the GI50 (LOX IMVI) was 14.4 µM (inactive). For the same molecule, the GI50 (M14) was 13.8 µM (inactive), the GI50 (MCF7) was 13.8 µM (inactive) and the GI50 (MDA-MB-231) was 16.2 µM (inactive). The GI50 (MDA-MB-435) was 23.7 µM (inactive), the GI50 (MDA-N) was 19.1 µM (inactive) and the GI50 (MOLT-4) was 19.1 µM (inactive). For the same molecule, the GI50 (Malme-3M) was 14.8 µM (inactive), the GI50 (NCI-H226) was > 100 µM (inactive) and the GI50 (NCI-H23) was 23.8 µM (inactive). For the same molecule, the GI50 (NCI-H460) was 49.1 µM (inactive), the GI50 (NCI-H522) was 21.4 µM (inactive) and the GI50 (NCI/ADR-RES) was 40.7 µM (inactive). For the same molecule, the GI50 (OVCAR-3) was 26 µM (inactive), the GI50 (OVCAR-4) was 16.7 µM (inactive) and the GI50 (OVCAR-5) was > 50.2 µM (inactive). The GI50 (OVCAR-8) was 30.9 µM (inactive), the GI50 (PC-3) was > 41.3 µM (inactive) and the GI50 (RXF 393) was 18.5 µM (inactive). The GI50 (SF-268) was > 45.8 µM (inactive), the GI50 (SF-295) was 60 µM (inactive) and the GI50 (SF-539) was 38.5 µM (inactive). The GI50 (SK-MEL-28) was 18.5 µM (inactive), the GI50 (SK-MEL-5) was 15 µM (inactive) and the GI50 (SK-OV-3) was 19.5 µM (inactive). The GI50 (SN12C) was 33.7 µM (inactive), the GI50 (SNB-19) was 54 µM (inactive) and the GI50 (SNB-75) was 32.7 µM (inactive). The GI50 (SW-620) was 18 µM (inactive), the GI50 (T47D) was 0.547 µM (active) and the GI50 (TK-10) was 19.4 µM (inactive). For the same molecule, the GI50 (U-251) was > 83.6 µM (inactive), the GI50 (UACC-257) was 22.1 µM (inactive) and the GI50 (UACC-62) was 16.6 µM (inactive). The GI50 (UO-31) was > 31.6 µM (inactive).
